Experiment: Stability study in hard gelatin capsules under ICH storage conditions
Assay type: physicochemical
Details: for Stability under the storage conditions in accordance with the international recommendations: general statement; for Stability formulated in hard gelatin capsules: conclusion from tables I and II
Description: 3,4-DAP tartrate, as prepared above in example 1, was introduced into hard gelatin capsules made of gelatin of size No. 3 in a proportion of 10 mg (expressed as weight of 3,4-DAP in the free base form) per hard gelatin capsule (Hard gelatin capsules A).
In the same way and by way of comparison, hard gelatin capsules made of gelatin of size No. 3 including 10 mg of 3,4-DAP per hard gelatin capsule were prepared (Hard gelatin capsules B).
A stability study on 3,4-DAP tartrate and on 3,4-DAP, introduced respectively into hard gelatin capsules A and B, was subsequently carried out.
This study was carried out under the conditions recommended by the international recommendations for the study of the stability of active principles (International Conference on Harmonization, Draft Guideline on Stability Testing of New Drug and Product, November 1999, CPMP/ICH/2736/99).

Compound	Stability under the storage conditions in accordance with the international recommendations	Stability formulated in hard gelatin capsules
Nc1ccncc1N.O=P(O)(O)O [3,4-DAP phosphate, 3,4-diaminopyridine Phosphate]	very high stability	–
Nc1ccncc1N.O=C(O)C(O)C(O)C(=O)O (centres unmarked) [3,4-DAP tartrate, 3,4-diaminopyridine Tartrate]	very high stability	great stability
Nc1ccncc1N [3,4-DAP, 3,4-diaminopyridine, reference compound]	unstable	unstable

— patent publication US20040106651A1, “3,4-diaminopyriding tartrate and phosphate, pharmaceutical compositions and uses thereof” (priority 2001, published 2004)
